Data from ChEMBL document CHEMBL1201862, “PubChem BioAssay data set” (2004).
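Results reflect a 48-hour exposure of cells in 96-well plates to compound at five concentrations. At the GI50, growth is halved.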 The source made the active and inactive calls. Rule as the data show it: active = GI50 up to about 1.1 µM and inactive = higher.

Experiments:
Assay in all cases: NCI anticancer screen, dose series, 48 h
UACC-257 = tested on: UACC-257
U-251 = tested on: U-251
OVCAR-3 = tested on: OVCAR-3
RPMI-8226 = tested on: RPMI-8226
MDA-N = tested on: MDA-N
BT-549 = tested on: BT-549
T47D = tested on: T47D
ACHN = tested on: ACHN
SF-295 = tested on: SF-295
RXF 393 = tested on: RXF 393
K562 = tested on: K562
NCI/ADR-RES = tested on: NCI/ADR-RES
MOLT-4 = tested on: MOLT-4
NCI-H23 = tested on: NCI-H23
UO-31 = tested on: UO-31
TK-10 = tested on: TK-10
MDA-MB-435 = tested on: MDA-MB-435
OVCAR-8 = tested on: OVCAR-8
HT-29 = tested on: HT-29
MDA-MB-231 = tested on: MDA-MB-231
MCF7 = tested on: MCF7
SK-MEL-5 = tested on: SK-MEL-5
HOP-92 = tested on: HOP-92
PC-3 = tested on: PC-3
HCC 2998 = tested on: HCC 2998
Hs-578T = tested on: Hs-578T
IGROV-1 = tested on: IGROV-1
SN12C = tested on: SN12C
EKVX = tested on: EKVX
SF-268 = tested on: SF-268
NCI-H460 = tested on: NCI-H460
NCI-H522 = tested on: NCI-H522
OVCAR-4 = tested on: OVCAR-4
Malme-3M = tested on: Malme-3M
SK-MEL-28 = tested on: SK-MEL-28
SK-OV-3 = tested on: SK-OV-3
SW-620 = tested on: SW-620
SK-MEL-2 = tested on: SK-MEL-2
OVCAR-5 = tested on: OVCAR-5
786-0 = tested on: 786-0
HOP-62 = tested on: HOP-62
DU-145 = tested on: DU-145
SNB-19 = tested on: SNB-19
LOX IMVI = tested on: LOX IMVI
A549 = tested on: A549
HCT-15 = tested on: HCT-15
HCT-116 = tested on: HCT-116
UACC-62 = tested on: UACC-62
SNB-75 = tested on: SNB-75
KM12 = tested on: KM12
CCRF-CEM = tested on: CCRF-CEM
M14 = tested on: M14
COLO 205 = tested on: COLO 205
CAKI-1 = tested on: CAKI-1
HL-60 = tested on: HL-60
A498 = tested on: A498
NCI-H226 = tested on: NCI-H226
SF-539 = tested on: SF-539

Measured: GI50

Cc1cc(S(=O)(=O)Nc2nc3cc(-c4ccc(Cl)cc4)sc3c(=O)n2N)c(S)cc1Cl
inactive: UACC-257 65 µM | U-251 43.4 µM | OVCAR-3 > 100 µM | RPMI-8226 > 100 µM | MDA-N 53.8 µM | BT-549 > 100 µM | T47D 31.3 µM | ACHN 26.5 µM | SF-295 33.3 µM | RXF 393 37.2 µM | K562 32.7 µM | NCI/ADR-RES 52.4 µM | MOLT-4 21.3 µM | NCI-H23 59.8 µM | UO-31 44.4 µM | TK-10 73.6 µM | MDA-MB-435 62.2 µM | OVCAR-8 50.2 µM | HT-29 54.5 µM | MDA-MB-231 56.6 µM | MCF7 44.7 µM | SK-MEL-5 51.1 µM | HOP-92 72.9 µM | PC-3 63.2 µM | HCC 2998 94.4 µM | Hs-578T > 100 µM | IGROV-1 59.6 µM | SN12C 50.6 µM | EKVX 82.8 µM | SF-268 86.3 µM | NCI-H460 36.6 µM | NCI-H522 62.4 µM | OVCAR-4 64.4 µM | Malme-3M > 100 µM | SK-MEL-28 36.5 µM | SK-OV-3 63.2 µM | SW-620 39.4 µM | SK-MEL-2 75.2 µM | OVCAR-5 44.2 µM | 786-0 45.9 µM | HOP-62 36.3 µM | DU-145 37.2 µM | SNB-19 80.2 µM | LOX IMVI 45.4 µM | A549 > 100 µM | HCT-116 40.3 µM | UACC-62 31.7 µM | SNB-75 > 100 µM | KM12 34.2 µM | CCRF-CEM 27.2 µM | M14 > 100 µM | COLO 205 17 µM | CAKI-1 > 100 µM
45.6 µM: HCT-15

CC1OC(OC2C(O[C@H]3CC[C@@]4(C)[C@@H](CC[C@@H]5[C@@H]4CC[C@]4(C)[C@@H]6[C@H](C[C@@H]54)O[C@]4(CC[C@@H](C)CO4)[C@H]6C)C3)OC(CO)C(OC3OC(CO)C(O)C(OC4OCC(O)C(O)C4O)C3OC3OCC(O)C(O)C3O)C2O)C(O)C(O)C1O (stereo not given in full)
1.21 µM: HCT-15
inactive: UACC-257 1.3 µM | OVCAR-3 1.74 µM | MDA-N 3.73 µM | T47D 1.8 µM | NCI/ADR-RES 1.58 µM | NCI-H23 1.52 µM | TK-10 1.66 µM | MDA-MB-435 1.42 µM | OVCAR-8 1.49 µM | MDA-MB-231 2.03 µM | SK-MEL-5 1.12 µM | HOP-92 1.67 µM | A498 1.68 µM | HCC 2998 1.63 µM | NCI-H226 1.87 µM | EKVX 1.51 µM | SF-268 1.69 µM | OVCAR-4 1.47 µM | Malme-3M 1.26 µM | SK-OV-3 1.9 µM | OVCAR-5 1.16 µM | 786-0 1.64 µM | DU-145 1.32 µM | SNB-75 1.45 µM
active: U-251 0.514 µM | RPMI-8226 0.593 µM | BT-549 1.08 µM | ACHN 0.942 µM | SF-295 0.904 µM | HL-60 0.282 µM | RXF 393 0.54 µM | MOLT-4 1.04 µM | UO-31 1.04 µM | HT-29 0.495 µM | MCF7 0.342 µM | PC-3 0.64 µM | Hs-578T 1.03 µM | IGROV-1 1.01 µM | SF-539 0.303 µM | NCI-H460 0.625 µM | NCI-H522 0.676 µM | SK-MEL-28 0.745 µM | SW-620 0.251 µM | SK-MEL-2 1.02 µM | HOP-62 0.783 µM | SNB-19 0.995 µM | LOX IMVI 0.514 µM | A549 0.336 µM | HCT-116 0.321 µM | UACC-62 0.746 µM | KM12 0.518 µM | CCRF-CEM 0.224 µM | M14 0.434 µM | COLO 205 0.351 µM | CAKI-1 0.706 µM
